{
  "source": "ChEMBL document CHEMBL3351946",
  "about": "“Design and synthesis of potent antitumor water-soluble phenyl N-mustard-benzenealkylamide conjugates via a bioisostere approach” (Eur J Med Chem, 2014)",
  "key": {"HT-29": {"test_system": "HT-29", "experiment": "Cytotoxicity against human HT-29 cells assessed as growth inhibition after 72 hrs by Alamar Blue assay", "assay_type": "functional, cell-based", "conditions": "HT-29, 72 h"}, "[1]": {"experiment": "Cytotoxicity against human HCT116 cells assessed as growth inhibition after 72 hrs by Alamar Blue assay", "assay_type": "functional, cell-based", "conditions": "HCT-116, 72 h"}, "[2]": {"experiment": "Cytotoxicity against human H3347 cells assessed as growth inhibition after 72 hrs by Alamar Blue assay", "assay_type": "functional, cell-based", "conditions": "H3347, 72 h"}, "[3]": {"experiment": "Antitumor activity against human H3347 cells xenografted in nude mouse assessed as tumor growth inhibition at 30 mg/kg,iv qd administered for 6 days measured on day 15 relative to control", "assay_type": "functional"}, "[4]": {"experiment": "Antitumor activity against human H3347 cells xenografted in nude mouse assessed as tumor growth inhibition at 30 mg/kg,iv qd administered for 6 days measured on day 31 relative to control", "assay_type": "functional", "conditions": "read-out: TGI"}, "[5]": {"experiment": "Antitumor activity against human H460 cells xenografted in nude mouse assessed as tumor growth inhibition at 30 mg/kg,iv qd administered for 6 days measured on day 19 to 26 relative to control", "assay_type": "functional, NCI-H460"}, "[6]": {"experiment": "Antitumor activity against human PC3 cells xenografted in nude mouse assessed as tumor growth inhibition at 50 mg/kg,iv administered every 2 days for 5 doses measured on day 38 relative to control", "assay_type": "functional", "conditions": "PC-3, iv, read-out: TGI"}, "Mus musculus [7]": {"test_system": "Mus musculus", "experiment": "Toxicity in nude mouse xenografted with human PC3 cells assessed as body weight loss at 30 mg/kg,iv qd administered for 6 days measured on day 13 relative to control", "assay_type": "organism-based, PC-3", "design": "dose 30 mg/kg", "conditions": "in vivo, 144 h"}, "Mus musculus [8]": {"test_system": "Mus musculus", "experiment": "Toxicity in nude mouse xenografted with human PC3 cells assessed as change in body weight at 30 mg/kg,iv qd administered for 6 days measured on day 31 relative to control", "assay_type": "organism-based, PC-3", "design": "dose 30 mg/kg", "conditions": "in vivo, 144 h"}, "Mus musculus [9]": {"test_system": "Mus musculus", "experiment": "Toxicity in nude mouse xenografted with human PC3 cells assessed as change in body weight at 40 mg/kg,iv administered every 2 days for 5 doses measured on day 38 relative to control", "assay_type": "organism-based, PC-3", "design": "dose 40 mg/kg", "conditions": "in vivo, 48 h"}, "Mus musculus [10]": {"test_system": "Mus musculus", "experiment": "Toxicity in nude mouse xenografted with human H460 cells assessed as body weight loss at 30 mg/kg,iv qd administered for 6 days measured on day 37 relative to control", "assay_type": "organism-based", "design": "dose 30 mg/kg", "conditions": "in vivo, 144 h"}, "HCT-116 [11]": {"test_system": "HCT-116", "experiment": "Antitumor activity against human HCT116 cells xenografted in nude mouse assessed as survival at 30 mg/kg,iv qd administered for 6 days", "assay_type": "functional, organism-based", "design": "dose 30 mg/kg"}, "NCI-H460": {"test_system": "NCI-H460", "experiment": "Antitumor activity against human H460 cells xenografted in nude mouse assessed as survival at 30 mg/kg,iv qd administered for 6 days", "assay_type": "functional, organism-based", "design": "dose 30 mg/kg"}, "HCT-116 [12]": {"test_system": "HCT-116", "experiment": "Induction of DNA interstand crosslinking in human HCT116 cells under aerobic condition assessed as decrease in tail moment at 0.5 to 1 uM preincubated for 1 hr followed by 20 Gy X-ray irradiation by comet assay", "assay_type": "cell-based"}, "[13]": {"experiment": "Cell cycle arrest in human HCT116 cells assessed as accumulation at G2/M phase at 1 uM after 24 hrs by FACS flow cytometric analysis (reference value: 31.55 +/- 4.63%)", "assay_type": "functional, cell-based", "conditions": "HCT-116"}, "[14]": {"experiment": "Cell cycle arrest in human HCT116 cells assessed as accumulation at G1 phase at 4 uM after 24 hrs by FACS flow cytometric analysis (reference value: 48.75 +/- 3.69%)", "assay_type": "functional, cell-based", "conditions": "HCT-116"}, "[15]": {"experiment": "Cell cycle arrest in human HCT116 cells assessed as accumulation at sub-G1 phase at 1 uM after 48 hrs by FACS flow cytometric analysis (reference value: 1.65 +/- 0.06%)", "assay_type": "functional, cell-based", "conditions": "HCT-116"}, "[16]": {"experiment": "Cell cycle arrest in human HCT116 cells assessed as accumulation at S phase at 1 uM after 48 hrs by FACS flow cytometric analysis (reference value: 12.11 +/- 4.28%)", "assay_type": "functional, cell-based", "conditions": "HCT-116"}, "[17]": {"experiment": "Cell cycle arrest in human HCT116 cells assessed as accumulation at G1 phase at 2 uM after 48 hrs by FACS flow cytometric analysis (reference value: 62.16 +/- 5.94%)", "assay_type": "functional, cell-based", "conditions": "HCT-116"}, "[18]": {"experiment": "Cell cycle arrest in human HCT116 cells assessed as accumulation at S phase at 2 uM after 48 hrs by FACS flow cytometric analysis (reference value: 12.11 +/- 4.28%)", "assay_type": "functional, cell-based", "conditions": "HCT-116"}, "[19]": {"experiment": "Cell cycle arrest in human HCT116 cells assessed as accumulation at G1 phase at 4 uM after 48 hrs by FACS flow cytometric analysis (reference value: 62.16 +/- 5.94%)", "assay_type": "functional, cell-based", "conditions": "HCT-116"}, "[20]": {"experiment": "Cell cycle arrest in human HCT116 cells assessed as accumulation at G2/M phase at 4 uM after 48 hrs by FACS flow cytometric analysis (reference value: 23.95 +/- 1.87%)", "assay_type": "functional, cell-based", "conditions": "HCT-116"}, "[21]": {"experiment": "Cell cycle arrest in human HCT116 cells assessed as accumulation at sub-G1 phase at 1 uM after 72 hrs by FACS flow cytometric analysis (reference value: 3.29 +/- 1.39%)", "assay_type": "functional, cell-based", "conditions": "HCT-116"}, "[22]": {"experiment": "Cell cycle arrest in human HCT116 cells assessed as accumulation at G2/M phase at 1 uM after 72 hrs by FACS flow cytometric analysis (reference value: 12.82 +/- 2.19%)", "assay_type": "functional, cell-based", "conditions": "HCT-116"}, "[23]": {"experiment": "Cell cycle arrest in human HCT116 cells assessed as accumulation at sub-G1 phase at 2 uM after 72 hrs by FACS flow cytometric analysis (reference value: 3.29 +/- 1.39%)", "assay_type": "functional, cell-based", "conditions": "HCT-116"}, "[24]": {"experiment": "Cell cycle arrest in human HCT116 cells assessed as accumulation at S phase at 2 uM after 72 hrs by FACS flow cytometric analysis (reference value: 7.49 +/- 0.95%)", "assay_type": "functional, cell-based", "conditions": "HCT-116"}, "[25]": {"experiment": "Cell cycle arrest in human HCT116 cells assessed as accumulation at sub-G1 phase at 4 uM after 72 hrs by FACS flow cytometric analysis (reference value: 3.29 +/- 1.39%)", "assay_type": "functional, cell-based", "conditions": "HCT-116"}, "[26]": {"experiment": "Cell cycle arrest in human HCT116 cells assessed as accumulation at G1 phase at 4 uM after 72 hrs by FACS flow cytometric analysis (reference value: 76.29 +/- 2.65%)", "assay_type": "functional, cell-based", "conditions": "HCT-116"}, "HCT-116 [27]": {"test_system": "HCT-116", "experiment": "Induction of apoptosis in human HCT116 cells assessed as PARP cleavage at 1 to 4 uM after 24 hrs by Western blot analysis", "assay_type": "functional, cell-based"}, "Mus musculus [28]": {"test_system": "Mus musculus", "experiment": "Induction of apoptosis in HCT116 cells xenografted in nude mouse at 30 mg/kg, iv qd administered for 6 days measured 24 hrs post last dose by hematoxylin and eosin staining", "assay_type": "functional, organism-based", "design": "dose 30 mg/kg", "conditions": "HCT-116"}, "[29]": {"experiment": "Terminal half life in Sprague-Dawley rat at 50 mg/kg, po", "assay_type": "ADME, organism-based", "design": "dose 50 mg/kg, route oral", "conditions": "in vivo, read-out: beta t1/2 (converted)"}, "Mus musculus [30]": {"test_system": "Mus musculus", "experiment": "Toxicity in iv dosed CD-1 (ICR) mouse assessed as swelling of cheek measured for 14 days", "assay_type": "organism-based", "conditions": "in vivo, 336 h"}, "Mus musculus [31]": {"test_system": "Mus musculus", "experiment": "Toxicity in iv dosed CD-1 (ICR) mouse assessed as swelling of mouth measured for 14 days", "assay_type": "organism-based", "conditions": "in vivo, 336 h"}, "Mus musculus [32]": {"test_system": "Mus musculus", "experiment": "Toxicity in iv dosed CD-1 (ICR) mouse assessed as soft feces measured for 14 days", "assay_type": "organism-based", "conditions": "in vivo, 336 h"}, "Mus musculus [33]": {"test_system": "Mus musculus", "experiment": "Toxicity in iv dosed CD-1 (ICR) mouse assessed as dehydration measured for 14 days", "assay_type": "organism-based", "conditions": "in vivo, 336 h"}, "[34]": {"experiment": "Toxicity in iv dosed CD-1 (ICR) mouse measured for 14 days", "assay_type": "organism-based", "conditions": "in vivo"}, "[35]": {"target": "Voltage-gated inwardly rectifying potassium channel KCNH2 (Homo sapiens, UniProt Q12809)", "sequence (Q12809 whole entry)": "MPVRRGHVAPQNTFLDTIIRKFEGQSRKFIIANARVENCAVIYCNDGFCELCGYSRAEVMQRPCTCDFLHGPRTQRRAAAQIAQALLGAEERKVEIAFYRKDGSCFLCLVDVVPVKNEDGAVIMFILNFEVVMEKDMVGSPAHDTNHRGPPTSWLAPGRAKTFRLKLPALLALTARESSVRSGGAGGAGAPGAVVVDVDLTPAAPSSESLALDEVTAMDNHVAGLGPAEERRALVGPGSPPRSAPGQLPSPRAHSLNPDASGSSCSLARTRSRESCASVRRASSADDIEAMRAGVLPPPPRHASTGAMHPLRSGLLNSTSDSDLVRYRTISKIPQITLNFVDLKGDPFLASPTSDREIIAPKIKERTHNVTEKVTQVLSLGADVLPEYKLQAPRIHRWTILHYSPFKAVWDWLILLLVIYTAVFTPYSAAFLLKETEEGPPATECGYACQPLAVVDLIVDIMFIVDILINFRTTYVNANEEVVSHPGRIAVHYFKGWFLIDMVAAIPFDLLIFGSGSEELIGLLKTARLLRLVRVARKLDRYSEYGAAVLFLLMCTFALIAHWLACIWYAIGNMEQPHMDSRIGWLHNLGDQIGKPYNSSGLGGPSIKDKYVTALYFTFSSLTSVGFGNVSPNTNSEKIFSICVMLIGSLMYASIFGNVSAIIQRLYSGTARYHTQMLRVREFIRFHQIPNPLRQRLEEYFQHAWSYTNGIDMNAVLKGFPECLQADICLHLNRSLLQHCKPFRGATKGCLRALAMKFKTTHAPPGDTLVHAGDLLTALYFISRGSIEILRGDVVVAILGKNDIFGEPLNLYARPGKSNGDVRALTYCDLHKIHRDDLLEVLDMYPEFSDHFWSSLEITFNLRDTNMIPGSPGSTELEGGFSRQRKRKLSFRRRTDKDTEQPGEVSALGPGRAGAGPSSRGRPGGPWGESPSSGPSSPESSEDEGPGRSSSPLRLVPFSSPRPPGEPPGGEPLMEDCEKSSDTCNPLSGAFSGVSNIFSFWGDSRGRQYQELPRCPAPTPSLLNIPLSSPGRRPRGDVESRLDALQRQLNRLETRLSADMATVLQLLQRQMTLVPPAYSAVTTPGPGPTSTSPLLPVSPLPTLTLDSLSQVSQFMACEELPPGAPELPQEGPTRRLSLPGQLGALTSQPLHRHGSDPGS", "experiment": "Binding affinity to human ERG after 4 hrs by fluorescence polarization assay"}},
  "note": "The source made the active and inactive calls. No cut-off for these calls is given here.",
  "data": [
    {"smiles": "CCN(CC)CC(=O)Nc1ccc(NC(=O)Nc2ccc(N(CCCl)CCCl)cc2)cc1", "values": [
      {"measurement": "IC50", "setting": "HT-29", "value": 19000, "unit": "nM"},
      {"measurement": "IC50", "setting": "[1]", "value": 820, "unit": "nM"},
      {"measurement": "IC50", "setting": "[2]", "value": 870, "unit": "nM"},
      {"measurement": "%max", "setting": "[3]", "value": 94, "unit": "%"},
      {"measurement": "inhibition in vivo at 30 mg/kg", "setting": "[4]", "value": 90, "unit": "%"},
      {"measurement": "%max", "setting": "[5]", "value": 61, "unit": "%"},
      {"measurement": "inhibition in vivo at 50 mg/kg", "setting": "[6]", "value": 62, "unit": "%"},
      {"measurement": "%max", "setting": "Mus musculus [7]", "value": -15, "unit": "%"},
      {"measurement": "Activity", "setting": "Mus musculus [8]", "value": -28, "unit": "%"},
      {"measurement": "Activity", "setting": "Mus musculus [9]", "value": -12, "unit": "%"},
      {"measurement": "Activity", "setting": "Mus musculus [10]", "value": -5, "unit": "%"},
      {"measurement": "Activity", "setting": "HCT-116 [11]", "value": "Active"},
      {"measurement": "Activity", "setting": "NCI-H460", "value": "Active"},
      {"measurement": "Activity", "setting": "HCT-116 [12]", "value": "Active"},
      {"measurement": "Activity", "setting": "[13]", "value": 63.2, "unit": "%"},
      {"measurement": "Activity", "setting": "[14]", "value": 12.8, "unit": "%"},
      {"measurement": "Activity", "setting": "[15]", "value": 9.86, "unit": "%"},
      {"measurement": "Activity", "setting": "[16]", "value": 11.9, "unit": "%"},
      {"measurement": "Activity", "setting": "[17]", "value": 49.5, "unit": "%"},
      {"measurement": "Activity", "setting": "[18]", "value": 11.9, "unit": "%"},
      {"measurement": "Activity", "setting": "[19]", "value": 19, "unit": "%"},
      {"measurement": "Activity", "setting": "[20]", "value": 54.1, "unit": "%"},
      {"measurement": "Activity", "setting": "[21]", "value": 12.4, "unit": "%"},
      {"measurement": "Activity", "setting": "[22]", "value": 20.5, "unit": "%"},
      {"measurement": "Activity", "setting": "[23]", "value": 19.7, "unit": "%"},
      {"measurement": "Activity", "setting": "[24]", "value": 12.1, "unit": "%"},
      {"measurement": "Activity", "setting": "[25]", "value": 17.9, "unit": "%"},
      {"measurement": "Activity", "setting": "[26]", "value": 18.1, "unit": "%"},
      {"measurement": "Activity", "setting": "HCT-116 [27]", "value": "Active"},
      {"measurement": "Activity", "setting": "Mus musculus [28]", "value": "Active"},
      {"measurement": "half-life", "setting": "[29]", "value": 1.01, "unit": "h"},
      {"measurement": "Activity", "setting": "Mus musculus [30]", "value": "Dose-dependent effect"},
      {"measurement": "Activity", "setting": "Mus musculus [31]", "value": "Dose-dependent effect"},
      {"measurement": "Activity", "setting": "Mus musculus [32]", "value": "Dose-dependent effect"},
      {"measurement": "Activity", "setting": "Mus musculus [33]", "value": "Dose-dependent effect"},
      {"measurement": "LD50 at 336 h", "setting": "[34]", "value": 115, "unit": "mg/kg"},
      {"measurement": "Activity", "setting": "[35]", "value": 4.48, "unit": "µM"}
    ]}
  ]
}
